Measured values: ChEMBL document CHEMBL5038653, “A Brain-Penetrant and Bioavailable Pyrazolopiperazine BACE1 Inhibitor Elicits Sustained Reduction of Amyloid β In Vivo” (ACS Med Chem Lett, 2022)
≈ marks a conversion by molar mass, not a printed value.

What was measured:
Beta-secretase 2 = target: T1, Beta-secretase 2 (Homo sapiens, UniProt Q9Y5Z0); test: Inhibition of BACE2 (unknown origin)
T1 sequence (Q9Y5Z0 whole entry): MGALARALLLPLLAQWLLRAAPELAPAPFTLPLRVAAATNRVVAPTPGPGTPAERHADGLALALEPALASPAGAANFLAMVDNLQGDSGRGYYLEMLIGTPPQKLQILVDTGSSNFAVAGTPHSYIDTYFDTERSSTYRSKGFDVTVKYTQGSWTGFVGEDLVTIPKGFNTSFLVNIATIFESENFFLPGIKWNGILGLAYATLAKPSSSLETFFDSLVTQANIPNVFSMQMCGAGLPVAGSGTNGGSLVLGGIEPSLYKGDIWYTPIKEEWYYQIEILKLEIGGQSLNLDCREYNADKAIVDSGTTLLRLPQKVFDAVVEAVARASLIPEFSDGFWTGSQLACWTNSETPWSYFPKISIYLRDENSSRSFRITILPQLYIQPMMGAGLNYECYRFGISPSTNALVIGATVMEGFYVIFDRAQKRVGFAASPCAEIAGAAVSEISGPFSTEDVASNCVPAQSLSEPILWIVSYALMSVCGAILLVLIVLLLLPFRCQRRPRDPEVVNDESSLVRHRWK

[1] = Free drug concentration in rat brain measured after 5 hrs by HPLC-MS/MS method; format: ADME, tissue-based
Cytochrome P450 1A2 = target: T2, Cytochrome P450 1A2 (Homo sapiens, UniProt P05177); test: Inhibition of human CYP1A2 by fluorescence plate reader analysis; format: ADME
T2 sequence (P05177 whole entry): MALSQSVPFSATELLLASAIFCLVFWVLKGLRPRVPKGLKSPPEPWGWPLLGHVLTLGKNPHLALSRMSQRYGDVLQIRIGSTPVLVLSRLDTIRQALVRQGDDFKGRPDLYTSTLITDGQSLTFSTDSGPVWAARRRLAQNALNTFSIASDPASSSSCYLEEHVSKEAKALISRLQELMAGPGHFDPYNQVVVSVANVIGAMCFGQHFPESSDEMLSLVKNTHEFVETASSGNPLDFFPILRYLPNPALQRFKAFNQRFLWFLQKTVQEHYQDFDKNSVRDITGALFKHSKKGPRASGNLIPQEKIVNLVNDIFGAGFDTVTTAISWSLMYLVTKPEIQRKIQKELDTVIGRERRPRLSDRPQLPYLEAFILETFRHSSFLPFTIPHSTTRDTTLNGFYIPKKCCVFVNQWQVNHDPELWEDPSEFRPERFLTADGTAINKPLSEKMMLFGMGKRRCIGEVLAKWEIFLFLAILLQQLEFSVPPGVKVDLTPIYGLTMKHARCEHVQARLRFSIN

[2] = Toxicity in guinea pig assessed as effect on body temperature at 0.63 to 5 mg/kg, iv administered over 10 mins at 30 mins interval; format: organism-based, Cavia porcellus; conditions: in vivo, dose 0.63-5 mg/kg
[3] = AUC (0 to last) in rat at 2.5 mg/kg, po; format: ADME, organism-based; parameters: route oral, time 0 - last, dose 2.5 mg/kg; conditions: in vivo
[4] = Toxicity in Beagle dog assessed as clinical pathological changes at 0.31 to 5 mg/kg, po; format: organism-based, Canis lupus familiaris; conditions: in vivo, dose 0.31-5 mg/kg
Cytochrome P450 3A4 = Cytochrome P450 3A4 (Homo sapiens, UniProt P08684); test: Inhibition of human CYP3A4 using testosterone as substrate by fluorescence plate reader analysis; format: ADME
[5] = Half life in rat at 0.25 mg/kg, iv; format: ADME, organism-based; conditions: in vivo
[6] = In vivo inhibition of BACE1 in Beagle dog assessed as reduction of amyloid beta (1 to 42 residues) levels in CSF administered orally by electrochemiluminescence assay; format: functional, organism-based, Canis lupus familiaris
[7] = AUC (0 to infinity) in mouse at 0.28 mg/kg, iv; format: ADME, organism-based; parameters: time infinity, route intravenous, dose 0.28 mg/kg; conditions: in vivo
[8] = Ratio of unbound drug concentration in brain to blood in CD-1 mouse at 10 mg/kg, po measured at 4 hr post dose; format: ADME, organism-based
[9] = In vivo inhibition of CD-1 mouse assessed as remaining amyloid beta (1 to 42 residues) levels in CSF at 10 mg/kg, po measured at 2 hrs; format: functional
[10] = Volume of distribution at steady state in dog at 0.25 mg/kg, iv; format: ADME, organism-based, Canis lupus familiaris; conditions: in vivo, read-out: Vdss
[11] = AUC (0 to infinity) in rat at 0.25 mg/kg, iv; format: ADME, organism-based; parameters: route intravenous, time infinity, dose 0.25 mg/kg; conditions: in vivo
[12] = Oral bioavailability in dog at 2.5 mg/kg; format: ADME, organism-based, Canis lupus familiaris; conditions: in vivo
[13] = In vivo inhibition of CD-1 mouse assessed as remaining amyloid beta (1 to 42 residues) levels in CSF at 10 mg/kg, po measured at 4 hrs; format: functional
[14] = Drug level in CD-1 mouse brain at 10 mg/kg, po measured at 2 hr post dose; format: ADME, organism-based; conditions: read-out: Ct
[15] = Dissociation constant, pKa of the compound by fast UV-spectrometric titration analysis; format: physicochemical
[16] = Clearance in rat at 0.25 mg/kg, iv relative to liver blood flow; format: ADME, organism-based; conditions: in vivo
[17] = Cardiotoxicity in guinea pig assessed as effect on QT interval upto 5 mg/kg, iv administered over 10 mins at 30 mins interval by ECG analysis; format: toxicity, organism-based, Cavia porcellus; conditions: in vivo
[18] = Cmax in rat at 2.3 mg/kg, po; format: ADME, organism-based; parameters: route oral, dose 2.3 mg/kg; conditions: in vivo
MDR1 = test: Efflux ratio of apparent permeability in dog MDCK-MDR1 cells; format: ADME, cell-based, Canis lupus familiaris
[19] = Clearance in dog at 0.25 mg/kg, iv to liver blood flow; format: ADME, organism-based, Canis lupus familiaris; conditions: in vivo
[20] = target: Voltage-gated inwardly rectifying potassium channel KCNH2 (Homo sapiens, UniProt Q12809); test: Inhibition of hERG expressed in HEK293 cells at -80 mV holding potential by automated patch-clamp method; format: toxicity, cell-based
[21] = Clearance in mouse at 0.28 mg/kg, iv relative to liver blood flow; format: ADME, organism-based; conditions: in vivo
[22] = Clearance in dog plasma at 0.25 mg/kg, iv; format: ADME, organism-based, Canis lupus familiaris
[23] = Cardiotoxicity in guinea pig assessed as effect on QRS interval upto 5 mg/kg, iv administered over 10 mins at 30 mins interval by ECG analysis; format: toxicity, organism-based, Cavia porcellus; conditions: in vivo
[24] = Ratio of apparent permeability across apical to basolateral side in the presence of P-gp inhibitor elacridar to the absence of P-gp inhibitor elacridar in dog MDCK-MDR1 cells at 5 uM incubated for 120 mins; format: ADME, cell-based, Canis lupus familiaris; conditions: 2 h
Cathepsin D = Cathepsin D (Homo sapiens, UniProt P07339); test: Inhibition of Cathepsin D (unknown origin)
Cathepsin D, sequence (P07339 65-162 limits assumed): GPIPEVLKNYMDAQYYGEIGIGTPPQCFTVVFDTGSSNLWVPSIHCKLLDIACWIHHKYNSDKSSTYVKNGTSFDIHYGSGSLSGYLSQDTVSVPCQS
Cathepsin D, sequence (P07339 169-412 limits assumed): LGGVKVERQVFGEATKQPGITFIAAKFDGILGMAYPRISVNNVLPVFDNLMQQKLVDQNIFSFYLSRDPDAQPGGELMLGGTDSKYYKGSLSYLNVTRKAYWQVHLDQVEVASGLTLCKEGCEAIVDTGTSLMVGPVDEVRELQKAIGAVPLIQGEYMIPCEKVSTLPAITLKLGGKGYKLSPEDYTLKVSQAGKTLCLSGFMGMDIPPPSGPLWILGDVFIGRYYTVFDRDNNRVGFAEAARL

Voltage-gated inwardly rectifying potassium channel KCNH2, sequence (Q12809 whole entry): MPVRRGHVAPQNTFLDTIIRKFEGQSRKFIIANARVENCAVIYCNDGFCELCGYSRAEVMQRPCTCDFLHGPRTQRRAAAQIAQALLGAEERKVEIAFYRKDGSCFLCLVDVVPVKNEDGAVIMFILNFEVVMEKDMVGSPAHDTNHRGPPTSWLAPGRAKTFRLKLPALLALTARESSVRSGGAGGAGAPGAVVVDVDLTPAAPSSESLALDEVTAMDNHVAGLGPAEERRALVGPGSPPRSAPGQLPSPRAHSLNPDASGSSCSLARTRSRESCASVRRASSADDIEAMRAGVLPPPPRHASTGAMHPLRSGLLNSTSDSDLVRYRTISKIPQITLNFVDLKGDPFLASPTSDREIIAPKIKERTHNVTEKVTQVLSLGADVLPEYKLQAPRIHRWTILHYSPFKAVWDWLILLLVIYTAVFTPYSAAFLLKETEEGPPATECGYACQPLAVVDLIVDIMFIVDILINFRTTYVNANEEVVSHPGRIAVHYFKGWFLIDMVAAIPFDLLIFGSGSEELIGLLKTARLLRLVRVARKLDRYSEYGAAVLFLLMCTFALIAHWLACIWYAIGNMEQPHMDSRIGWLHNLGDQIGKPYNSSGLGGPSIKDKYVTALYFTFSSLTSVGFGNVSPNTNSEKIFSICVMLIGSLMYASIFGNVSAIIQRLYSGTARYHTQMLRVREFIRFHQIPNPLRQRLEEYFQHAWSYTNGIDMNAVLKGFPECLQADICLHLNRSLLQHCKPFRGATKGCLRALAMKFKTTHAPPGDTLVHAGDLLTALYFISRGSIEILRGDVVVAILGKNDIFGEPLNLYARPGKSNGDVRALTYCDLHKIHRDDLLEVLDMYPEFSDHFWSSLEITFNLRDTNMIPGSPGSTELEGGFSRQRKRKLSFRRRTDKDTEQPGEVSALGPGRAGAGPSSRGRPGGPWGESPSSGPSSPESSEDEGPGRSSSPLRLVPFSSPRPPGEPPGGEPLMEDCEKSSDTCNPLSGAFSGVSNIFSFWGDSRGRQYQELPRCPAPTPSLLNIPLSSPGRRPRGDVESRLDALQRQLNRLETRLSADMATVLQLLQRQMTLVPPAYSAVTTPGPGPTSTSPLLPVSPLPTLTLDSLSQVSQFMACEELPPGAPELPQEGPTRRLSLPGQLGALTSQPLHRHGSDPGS
Cytochrome P450 3A4, sequence (P08684 whole entry): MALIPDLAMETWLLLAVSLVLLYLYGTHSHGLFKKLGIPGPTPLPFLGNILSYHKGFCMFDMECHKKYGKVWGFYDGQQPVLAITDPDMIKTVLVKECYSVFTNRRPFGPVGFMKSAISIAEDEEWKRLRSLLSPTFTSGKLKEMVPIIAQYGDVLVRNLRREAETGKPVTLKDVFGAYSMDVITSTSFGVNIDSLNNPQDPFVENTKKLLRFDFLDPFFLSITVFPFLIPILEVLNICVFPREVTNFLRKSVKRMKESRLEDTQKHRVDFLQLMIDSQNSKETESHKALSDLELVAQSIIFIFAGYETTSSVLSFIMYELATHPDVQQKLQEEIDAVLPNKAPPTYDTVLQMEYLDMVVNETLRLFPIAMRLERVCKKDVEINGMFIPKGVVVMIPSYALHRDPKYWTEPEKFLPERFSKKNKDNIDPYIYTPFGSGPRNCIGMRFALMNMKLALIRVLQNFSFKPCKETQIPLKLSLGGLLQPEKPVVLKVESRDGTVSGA

COc1cnc(C(=O)Nc2ccc(F)c([C@]3(C)Cn4nc(C#N)cc4C(N)=N3)c2)cn1
IC50 (Beta-secretase 2): 0.0115 µM | fraction unbound at 5 h [1]: 0.015 | IC50 (Cytochrome P450 1A2): > 30 µM | Activity [2]: Non-Toxic | AUClast [3]: 3840 ng·h/mL | Activity [4]: Non-Toxic | IC50 (Cytochrome P450 3A4): > 30 µM | half-life [5]: 4.3 h | EC90 [6]: 44 ng/mL (≈ 0.105 µM) | EC50 ([6]; Canis lupus familiaris, Beagle): 7.5 ng/mL (≈ 0.0178 µM) | AUC [7]: 206 ng·h/mL | Kp uu at 4 h [8]: 0.22 | Activity [9]: 53% | Vd [10]: 4.2 L/kg | AUC [11]: 219 ng·h/mL | bioavailability [12]: 67% | Activity [13]: 45% | concentration at 2 h [14]: 888 ng/g | pKa [15]: 7.1 | CL [16]: 35% | Activity [17]: Non-Toxic | Cmax [18]: 124 ng/mL | efflux ratio (MDR1): 5.3 | CL [19]: 20% | IC50 [20]: > 10 µM | CL [21]: 25% | clearance [22]: 6 mL/min/kg | Activity [23]: Non-Toxic | Ratio [24]: 1.56 | IC50 (Cathepsin D): > 100 µM
